Test results reported in US6806230B1, “Pyrimidine derivatives and herbicides containing them” (Kumiai Chemical Industry Co., Ltd., priority 1999, dated 2004).

Key:
Format in all cases: in vivo
monochoria (Mo) [1] = assay: Test Example 4: selectivity for a crop plant by flooded paddy field treatment; set-up: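 0-5 growth inhibition grade; 5 = over 90%; 4 = 70-90%; 3 = 50-70%; 2 = 30-50%; 1 = 10-30%; 0 = under 10%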; conditions: monochoria, dose 25 gai/10a, 21st day after treatment, index per Table 44
Method in brief: (§1)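 Flooded paddy pots, 3 cm water; weeds sown from seed, rice transplanted at 2nd-leaf stage. Day after: wettable powder diluted in water, applied dropwise to water surface, 25 g a.i./10 a. Greenhouse; herbicidal effect rated at day 21.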

barnyard grass (Eo) [2] = assay: as above; set-up: scale not given here; conditions: barnyard grass, dose 25 gai/10a, 21st day after treatment, index per Table 44
Method in brief: as §1

rice (Or) = assay: as above; set-up: scale not given here; conditions: rice transplanted at second leaf stage, dose 25 gai/10a, 21st day after treatment, index per Table 44
Method in brief: as §1

barnyard grass (Ec) [3] = assay: Test Example 2: herbicidal effects by upland soil treatment; set-up: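 0-5 growth inhibition grade; 5 = over 90%; 4 = 70-90%; 3 = 50-70%; 2 = 30-50%; 1 = 10-30%; 0 = under 10%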; conditions: dose 100 g active ingredient per 10 ares, examined on the 21st day after treatment
Method in brief: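 Pre-emergence test: barnyard grass and green foxtail sown in upland soil, then soil surface sprayed with wettable-powder formulation at 100 g active ingredient per 10 ares (100 l per 10 ares). Grown in greenhouse; herbicidal effect scored on a rating scale 21 days after treatment.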

barnyard grass (Ec) [4] = assay: Test Example 3: herbicidal effects by foliage treatment in upland field; set-up: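 0-5 growth inhibition grade; 5 = over 90%; 4 = 70-90%; 3 = 50-70%; 2 = 30-50%; 1 = 10-30%; 0 = under 10%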; conditions: dose 100 g active ingredient per 10 ares, examined on the 14th day after treatment
Experimental: In a 80 cm^2 plastic pot, upland soil was filled, and seeds of barnyard grass (Ec) and green foxtail (Se) were sown and cultured in a green house for 2 weeks. Then, a wettable powder prepared in accordance with Formulation Example 1 was diluted with water and applied to the entire foliage from above the plants by means of a small size spray at a rate of 100 l per 10 ares so that the dose of the active ingredient would be 100 g per 10 ares. Thereafter, cultivation was carried out in a green house, and on the 14th day after the treatment, the herbicidal effects were examined in accordance with the standards of Table 44.

monochoria (Mo) [5] = assay: Test Example 1: herbicidal effects by flooded paddy field treatment; set-up: herbicidal effects, Mo (monochoria):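 0-5 growth inhibition grade; 5 = over 90%; 4 = 70-90%; 3 = 50-70%; 2 = 30-50%; 1 = 10-30%; 0 = under 10%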; conditions: for herbicidal effects, Mo (monochoria): dose 100 g active ingredient per 10 ares, examined on the 21st day after treatment, standards of Table 44;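 as to Herbicidal effect index, Mo: 0-5 growth inhibition grade; 5 = over 90%; 4 = 70-90%; 3 = 50-70%; 2 = 30-50%; 1 = 10-30%; 0 = under 10%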
Method in brief: (§2)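 Puddled paddy soil in pots, seeds sown, 3 cm flood. Day after sowing: wettable powder diluted in water, applied dropwise to water surface, 100 g a.i./10 ares. Greenhouse; visual herbicidal rating at day 21 post-treatment.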

barnyard grass (Eo) [6] = assay: as above; set-up: herbicidal effects, Eo (barnyard grass):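 0-5 growth inhibition grade; 5 = over 90%; 4 = 70-90%; 3 = 50-70%; 2 = 30-50%; 1 = 10-30%; 0 = under 10%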; conditions: for herbicidal effects, Eo (barnyard grass): dose 100 g active ingredient per 10 ares, examined on the 21st day after treatment, standards of Table 44
Method in brief: as §2

[7] = dose 100 gai/10a, examined on 21st day after treatment, index 0-5 per Table 44
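For Herbicidal effect index, Eo in this document: 0-5 growth inhibition grade; 5 = over 90%; 4 = 70-90%; 3 = 50-70%; 2 = 30-50%; 1 = 10-30%; 0 = under 10%.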

Structure (SMILES): COCc1ncncc1C(C(C)C)N(C)C(=O)C(C)c1ccc(Cl)cc1 (mixture of isomers) [1-591]
- Mo (herbicidal effect index) (monochoria (Mo) [1]): 5
- Eo (herbicidal effect index) (barnyard grass (Eo) [2]): 5
- Or (herbicidal effect index on crop) (rice (Or)): 1
- Ec (herbicidal effects, index) (barnyard grass (Ec) [3]): 5
- Ec (herbicidal effects, index) (barnyard grass (Ec) [4]): 4
- herbicidal effects, Mo (monochoria) (monochoria (Mo) [5]): 5
- herbicidal effects, Eo (barnyard grass) (barnyard grass (Eo) [6]): 5

Structure (SMILES): CC(C)CC(c1cncnc1C(F)(F)F)N(C)C(=O)Cc1cccc(F)c1 (racemic) [1-334]
- Mo (herbicidal effect index) (monochoria (Mo) [1]): 5
- Eo (herbicidal effect index) (barnyard grass (Eo) [2]): 5
- Or (herbicidal effect index on crop) (rice (Or)): 0
- Ec (herbicidal effects, index) (barnyard grass (Ec) [3]): 5
- Ec (herbicidal effects, index) (barnyard grass (Ec) [4]): 4
- herbicidal effects, Mo (monochoria) (monochoria (Mo) [5]): 5
- herbicidal effects, Eo (barnyard grass) (barnyard grass (Eo) [6]): 5

Structure (SMILES): C#CCN(C(=O)Cc1cccc(F)c1)C(c1cncnc1C(F)(F)F)C(C)C (racemic) [1-569]
- Mo (herbicidal effect index) (monochoria (Mo) [1]): 5
- Eo (herbicidal effect index) (barnyard grass (Eo) [2]): 5
- Or (herbicidal effect index on crop) (rice (Or)): 1
- Ec (herbicidal effects, index) (barnyard grass (Ec) [3]): 5
- Ec (herbicidal effects, index) (barnyard grass (Ec) [4]): 5
- herbicidal effects, Mo (monochoria) (monochoria (Mo) [5]): 5
- herbicidal effects, Eo (barnyard grass) (barnyard grass (Eo) [6]): 5

Structure (SMILES): CCc1ncncc1C(C(C)C)N(C)C(=O)Cc1ccc(Cl)s1 (racemic) [2-75]
- Mo (herbicidal effect index) (monochoria (Mo) [1]): 5
- Eo (herbicidal effect index) (barnyard grass (Eo) [2]): 5
- Or (herbicidal effect index on crop) (rice (Or)): 1
- Ec (herbicidal effects, index) (barnyard grass (Ec) [3]): 5
- Ec (herbicidal effects, index) (barnyard grass (Ec) [4]): 5
- herbicidal effects, Mo (monochoria) (monochoria (Mo) [5]): 5
- herbicidal effects, Eo (barnyard grass) (barnyard grass (Eo) [6]): 5

Structure (SMILES): C#CCN(C(=O)Cc1ccc(F)cc1)C(CCC)c1cncnc1C(C)C (racemic) [1-611]
- Mo (herbicidal effect index) (monochoria (Mo) [1]): 5
- Eo (herbicidal effect index) (barnyard grass (Eo) [2]): 5
- Or (herbicidal effect index on crop) (rice (Or)): 1
- Ec (herbicidal effects, index) (barnyard grass (Ec) [3]): 5
- Ec (herbicidal effects, index) (barnyard grass (Ec) [4]): 4
- herbicidal effects, Mo (monochoria) (monochoria (Mo) [5]): 5
- herbicidal effects, Eo (barnyard grass) (barnyard grass (Eo) [6]): 5

Structure (SMILES): CCc1ncncc1C(C(C)C)N(C)S(=O)(=O)c1ccccc1 (racemic) [4-2]
- Mo (herbicidal effect index) (monochoria (Mo) [1]): 5
- Eo (herbicidal effect index) (barnyard grass (Eo) [2]): 5
- Or (herbicidal effect index on crop) (rice (Or)): 1
- Ec (herbicidal effects, index) (barnyard grass (Ec) [3]): 5
- Ec (herbicidal effects, index) (barnyard grass (Ec) [4]): 5
- herbicidal effects, Mo (monochoria) (monochoria (Mo) [5]): 5
- herbicidal effects, Eo (barnyard grass) (barnyard grass (Eo) [6]): 5

Structure (SMILES): CCOCN(C(=O)Cc1ccc(C)cc1)C(c1cncnc1C(F)(F)F)C(C)C (racemic) [Compound 1-107]
- Mo (herbicidal effect index) (monochoria (Mo) [1]): 5
- Eo (herbicidal effect index) (barnyard grass (Eo) [2]): 5
- Or (herbicidal effect index on crop) (rice (Or)): 0
- Ec (herbicidal effects, index) (barnyard grass (Ec) [4]): 4
- Herbicidal effect index, Mo (monochoria (Mo) [5]; [7]): 5
- Herbicidal effect index, Eo (barnyard grass (Eo) [6]; [7]): 5

Structure (SMILES): CN(C(=O)Cc1ccccc1)C(c1ccc(Cl)cc1)c1cncnc1C(F)(F)F (racemic) [1-221]
- Mo (herbicidal effect index) (monochoria (Mo) [1]): 5
- Eo (herbicidal effect index) (barnyard grass (Eo) [2]): 5
- Or (herbicidal effect index on crop) (rice (Or)): 1
- Ec (herbicidal effects, index) (barnyard grass (Ec) [4]): 4
- herbicidal effects, Mo (monochoria) (monochoria (Mo) [5]): 5
- herbicidal effects, Eo (barnyard grass) (barnyard grass (Eo) [6]): 5

Structure (SMILES): COc1ccc(C(c2cncnc2C(F)(F)F)N(C)C(=O)Cc2ccc(Cl)cc2)cc1 (racemic) [1-486]
- Mo (herbicidal effect index) (monochoria (Mo) [1]): 5
- Eo (herbicidal effect index) (barnyard grass (Eo) [2]): 5
- Or (herbicidal effect index on crop) (rice (Or)): 1
- Ec (herbicidal effects, index) (barnyard grass (Ec) [4]): 4
- herbicidal effects, Mo (monochoria) (monochoria (Mo) [5]): 5
- herbicidal effects, Eo (barnyard grass) (barnyard grass (Eo) [6]): 5

Structure (SMILES): CC(C)C(c1cncnc1C(F)(F)F)N(CC#N)C(=O)Cc1ccc(Cl)cc1 (racemic) [1-482]
- Ec (herbicidal effects, index) (barnyard grass (Ec) [3]): 5
- Ec (herbicidal effects, index) (barnyard grass (Ec) [4]): 5
- herbicidal effects, Mo (monochoria) (monochoria (Mo) [5]): 5
- herbicidal effects, Eo (barnyard grass) (barnyard grass (Eo) [6]): 5

Structure (SMILES): CCc1ncncc1C(C(C)C)N(C)C(=O)N(C)c1ccc(F)cc1 (racemic) [1-539]
- Ec (herbicidal effects, index) (barnyard grass (Ec) [3]): 5
- Ec (herbicidal effects, index) (barnyard grass (Ec) [4]): 4
- herbicidal effects, Mo (monochoria) (monochoria (Mo) [5]): 5
- herbicidal effects, Eo (barnyard grass) (barnyard grass (Eo) [6]): 5

Structure (SMILES): CC(C)c1ncncc1C(C(C)C)N(C)C(=O)Cc1cccs1 (racemic) [2-23]
- Ec (herbicidal effects, index) (barnyard grass (Ec) [3]): 5
- Ec (herbicidal effects, index) (barnyard grass (Ec) [4]): 4
- herbicidal effects, Mo (monochoria) (monochoria (Mo) [5]): 5
- herbicidal effects, Eo (barnyard grass) (barnyard grass (Eo) [6]): 5

Structure (SMILES): CC(C)c1ncncc1C(C(C)C)N(C)C(=O)Cc1cccc(F)c1 (racemic) [Compound 1-270]
- Ec (herbicidal effects, index) (barnyard grass (Ec) [3]): 5
- Ec (herbicidal effects, index) (barnyard grass (Ec) [4]): 4
- herbicidal effects, Mo (monochoria) (monochoria (Mo) [5]): 5
- herbicidal effects, Eo (barnyard grass) (barnyard grass (Eo) [6]): 5

Structure (SMILES): CCc1ncncc1C(C(C)C)N(C)C(=O)Cc1ccccc1 (racemic) [1-432]
- Ec (herbicidal effects, index) (barnyard grass (Ec) [3]): 5
- Ec (herbicidal effects, index) (barnyard grass (Ec) [4]): 5
- herbicidal effects, Mo (monochoria) (monochoria (Mo) [5]): 5
- herbicidal effects, Eo (barnyard grass) (barnyard grass (Eo) [6]): 5

Structure (SMILES): CON=Cc1ncncc1C(C(C)C)N(C)C(=O)Cc1ccc(F)cc1 (racemic) [1-497]
- Ec (herbicidal effects, index) (barnyard grass (Ec) [3]): 5
- Ec (herbicidal effects, index) (barnyard grass (Ec) [4]): 4
- herbicidal effects, Mo (monochoria) (monochoria (Mo) [5]): 5
- herbicidal effects, Eo (barnyard grass) (barnyard grass (Eo) [6]): 5

Structure (SMILES): CCCc1ncncc1C(C(C)C)N(C)C(=O)Cc1ccc(F)cc1 (racemic) [1-446]
- Ec (herbicidal effects, index) (barnyard grass (Ec) [3]): 5
- Ec (herbicidal effects, index) (barnyard grass (Ec) [4]): 5
- herbicidal effects, Mo (monochoria) (monochoria (Mo) [5]): 5
- herbicidal effects, Eo (barnyard grass) (barnyard grass (Eo) [6]): 5

Structure (SMILES): CCCc1ncncc1C(C(C)C)N(C)C(=O)Cc1ccc(Cl)cc1 (racemic) [1-447]
- Ec (herbicidal effects, index) (barnyard grass (Ec) [3]): 5
- Ec (herbicidal effects, index) (barnyard grass (Ec) [4]): 5
- herbicidal effects, Mo (monochoria) (monochoria (Mo) [5]): 5
- herbicidal effects, Eo (barnyard grass) (barnyard grass (Eo) [6]): 5

Structure (SMILES): CCc1ncncc1C(C(C)C)N(C)C(=O)Cc1ccc(C)cc1 (racemic) [1-435]
- Ec (herbicidal effects, index) (barnyard grass (Ec) [3]): 5
- Ec (herbicidal effects, index) (barnyard grass (Ec) [4]): 4
- herbicidal effects, Mo (monochoria) (monochoria (Mo) [5]): 5
- herbicidal effects, Eo (barnyard grass) (barnyard grass (Eo) [6]): 5

Structure (SMILES): CCc1ncncc1C(N(C)C(=O)Cc1ccc(F)cc1)C(C)(C)C (racemic) [1-565]
- Ec (herbicidal effects, index) (barnyard grass (Ec) [3]): 5
- Ec (herbicidal effects, index) (barnyard grass (Ec) [4]): 5
- herbicidal effects, Mo (monochoria) (monochoria (Mo) [5]): 5
- herbicidal effects, Eo (barnyard grass) (barnyard grass (Eo) [6]): 5

Structure (SMILES): CCCC(c1cncnc1C(C)C)N(C)C(=O)Cc1ccccc1 (racemic) [1-449]
- Ec (herbicidal effects, index) (barnyard grass (Ec) [3]): 5
- Ec (herbicidal effects, index) (barnyard grass (Ec) [4]): 4
- herbicidal effects, Mo (monochoria) (monochoria (Mo) [5]): 5
- herbicidal effects, Eo (barnyard grass) (barnyard grass (Eo) [6]): 5

Structure (SMILES): COC(=O)c1ncncc1C(C(C)C)N(C)C(=O)C(C)c1ccc(Cl)cc1 (single isomer, unassigned) [Compound 1-592, 5-(1-{[2-(4-chlorophenyl)-propionyl]methylamino}-2-methylpropyl)-pyrimidine-4-carboxylic acid methyl ester]
- Ec (herbicidal effects, index) (barnyard grass (Ec) [3]): 5
- Ec (herbicidal effects, index) (barnyard grass (Ec) [4]): 5
- herbicidal effects, Mo (monochoria) (monochoria (Mo) [5]): 5
- herbicidal effects, Eo (barnyard grass) (barnyard grass (Eo) [6]): 5

Structure (SMILES): Cc1ccc(CC(=O)N(C)C(CC(C)C)c2cncnc2C(F)(F)F)s1 (racemic) [2-53]
- Ec (herbicidal effects, index) (barnyard grass (Ec) [3]): 5
- Ec (herbicidal effects, index) (barnyard grass (Ec) [4]): 4
- herbicidal effects, Mo (monochoria) (monochoria (Mo) [5]): 5
- herbicidal effects, Eo (barnyard grass) (barnyard grass (Eo) [6]): 5

Structure (SMILES): CCC(c1cncnc1C(C)(C)C)N(C)C(=O)Cc1ccc(F)cc1 (racemic) [1-571]
- Ec (herbicidal effects, index) (barnyard grass (Ec) [3]): 5
- Ec (herbicidal effects, index) (barnyard grass (Ec) [4]): 4
- herbicidal effects, Mo (monochoria) (monochoria (Mo) [5]): 4
- herbicidal effects, Eo (barnyard grass) (barnyard grass (Eo) [6]): 5
